Assay results taken from patent publication US20090048339A1, “COMPOSITIONS OF CIS-9, TRANS-11 CONJUGATED LINOLEIC ACID AND VACCENIC ACID AND USES THEREOF” (FONTERRA CORPORATE RESEARCH AND DEVELOPMENT LIMITE, priority 2005, published 2009).

Legend:
[1] = system: allergen-induced accumulation of leukocytes into the lung; experiment: OVA-induced asthma mouse model: bronchoalveolar lavage (BAL) total and differential cell counts; type: in vivo, C57BL/6 mice; conditions: for increase of total BAL cell counts vs control diet: single-supplement diets (0.14% cis-9, trans-11 CLA or 0.21% VA), BAL 6 days after intranasal OVA challenge, vs AIN93G control; for increase of accumulation of eosinophils in BAL vs control diet: single-supplement diets, BAL 6 days after OVA challenge, not significant; for effect on leukocyte infiltration into the airway lumen: summary statement
Protocol: (§1) Eight to nine week old male and female C57BL/6 mice (University of Auckland, New Zealand) were kept on an ovalbumin (OVA)-free normal mouse chow diet from weaning up until they were assigned to a particular diet (control or experimental diet). Each diet group (n=6) contained an equal number of male and female mice. Throughout the study period mice were kept in an air-conditioned room with controlled humidity, temperature, and a 12h light:dark cycle.
(§2) Healthy control mice were maintained on an unmodified AIN-93G diet. Soybean oil (which contains no CLA) was the dietary fat source in the AIN-93G diet. The final fat content of all treatment diets used in the Examples was maintained at the same level as the fat content of the control AIN-93G diet by reducing the soybean oil content of the treatment or control diets as required. Fresh diet was provided biweekly, and mice had free access to food and water throughout the study.
Bronchoalveolar lavage was performed immediately after euthanasia by flushing 1 ml of PBS containing 1% heat inactivated fetal calf serum (lavage buffer) thrice through the lung and airways of mice via the cannulated trachea. The recovered BAL was pooled for each animal, centrifuged at 1,500 rpm at 4° C., and the supernatant stored at −80° C. The cell pellets were resuspended in 1 ml of lavage buffer, and total cell numbers were counted using a hemocytometer. BAL cells were centrifuged onto poly-L-lysine-coated glass slides using a cytospin, and stained with Diff-Quik stain (Dade Behring Inc. USA). Differential cellular counts were made by counting ≧300 cells under light microscopy (Nikon E200 microscope), using standard morphological criteria.
Data are expressed as the mean±SEM, and statistical significance was determined by the Student's t test. A value of P<0.05 was taken as significant.

OVA-induced asthma = OVA-induced asthma mouse model: lung histopathology score and mucus index (alcian blue-PAS sections); type: in vivo, C57BL/6 mice; conditions: summary statement; for effect on lung pathology: fed individually
Protocol: as §1, §2

IL-5 = IL-5 in BAL fluid by ELISA after allergen challenge; type: in vivo, C57BL/6 mice; conditions: vs AIN-93G control
Excerpt: The levels of IL-5 and eotaxin in the BAL fluid were quantitated by ELISA using a Quantikine mouse IL-5 ELISA kit and a mouse eotaxin Quantikine ELISA kit (R&D Systems, MN), respectively, according to the manufacturers' instructions. The detection limits were 3 pg/ml for eotaxin and 7 pg/ml for IL-5.
IL-5 and eotaxin produced by a variety of different cell types in the sensitized lung play key roles in asthma by controlling the development and release of eosinophils from the bone marrow, and their accumulation, activation and survival in the lung (Walsh et al., 2005; Shinagawa et al., 2003). Challenge with allergen led to marked increases in the levels of IL-5 and eotaxin (data not shown) in the BAL fluid of control mice fed the AIN93G diet (FIG. 3).

[2] = mice, two week feeding period; cited from earlier work
[3] = humans; cited from earlier work
[4] = Blood triglyceride levels (Accutrend GCT meter); conditions: diet with 0.21% VA; P<0.05; data not shown

SMILES	increase of total BAL cell counts vs control diet [1] [%]	increase of accumulation of eosinophils in BAL vs control diet [1] [%]	effect on leukocyte infiltration into the airway lumen [1]	effect on lung pathology (OVA-induced asthma)	reduction of IL-5 in BAL fluid vs control diet (IL-5) [%]	VA consumed retained as cis-9, trans-11 CLA in its triglyceride form [2] [%]	average conversion rate of VA to cis-9, trans-11 CLA [3] [%]	increase of blood triglyceride levels [4] [%]	increase in monocytes/macrophages in BAL vs control diet ([1]; 0.14% cis-9, trans-11 CLA diet, P=0.05) [%]	inhibition of mucus hypersecretion (significance) (OVA-induced asthma)
CCCCCC/C=C/CCCCCCCCCC(=O)O [VA, trans 11-octadecenoic acid]	94	270	increased	no significant effect	11	~12	~19	59	–	–
CCCCCC/C=C/C=C\CCCCCCCC(=O)O [cis-9, trans-11 CLA, cis-9, trans-11 conjugated linoleic acid]	43	69	increased	no significant effect	21	–	–	–	35	significance was not achieved
